Measured values as given in patent publication US11192894B2, “Cell impermeable coelenterazine analogues” (PROMEGA CORPORATION, priority 2016, dated 2021).

Tests used:
[1] = target: purified NANOLUC® Luciferase (Oplophorus gracilirostris, UniProt Q9GV45, A31E/A60N/A81I/F95D/I117V/K70R/L54V/L99Q/M102K/N193R/P142E/Q151K/Q38R/Q45L/V71I/Y165I); format: biochemical; details: relative value, furimazine set to 1; purified NanoLuc; initial light output three minutes after substrate addition
Method: Each compound to be screened was dissolved in DMSO (5 mM) and then further diluted to 100 uM in NANO-GLO® Luciferase Assay Buffer. Each diluted substrate was then combined in equal volumes with purified NANOLUC® Luciferase diluted into CO2 independent media+10% FBS. Initial light output for each substrate was measured in a GloMax®-Multi+ luminometer three minutes after substrate addition and then at five minute intervals as a means to determine signal half-life. […] Km was calculated using GraphPad Prism using non linear Michaelis-Menten regression.

NanoLuc:KDR = experiment: Cell-based luciferase assay, HEK293 cells expressing NanoLuc:KDR (NanoLuc on the cell surface), ± extracellular inhibitor JRW-0344; details: 10 μM substrate ± 20 μM inhibitor, FIG. 2A
Method: (§1) FIGS. 2A-2D show extracellular bioluminescent activity of exemplary compounds in HEK293 cells. HEK293 cells were transfected with two different membrane bound NANOLUC® fusions: 1) NanoLuc:KDR, presenting NanoLuc on the outside of the membrane; 2) KDR:NanoLuc, presenting NanoLuc on the inside of the membrane. The cell impermeable NANOLUC® inhibitor JRW-0344 (disclosed in U.S. Ser. No. 15/192,420 to Duellman et al., “THIENOPYRROLE COMPOUNDS AND USES THEREOF,” filed Jun. 24, 2016), was added to the cells to inhibit extracellular bioluminescent activity.
(§2) HEK293 cells were maintained in DMEM containing 100 IU/ml penicillin, 100 μg/ml streptomycin, and 10% fetal calf serum at 37° C. in 5% CO2. Dulbecco's modified eagle medium (DMEM), Opti-MEM, Penicillin/Streptomycin, and Trypsin-EDTA are purchased from Life Technologies (Carlsbad). Fetal calf serum (FBS) is purchased from HyClone (GE Healthcare). Microtiter plates were purchased from Corning.
(§3) HEK293 cells were transiently transfected with two different integral membrane NanoLuc fusion proteins: 1) NanoLuc:KDR, presenting NanoLuc on the cell surface; 2) KDR:NanoLuc, presenting NanoLuc in the interior of the cell. After 24 hours, transfected cells were collected, resuspended in OptiM at 200,000 cell/ml and plated into wells of white, 96-well plates at 100 μL/well. For luminescent measurements, cells were treated with the indicated substrates at a final concentration of 10 μM or 20 μM in the presence or absence of 20 μM cell impermeable NanoLuc inhibitor JRW-0344. The luminescent signal was analyzed 3 minutes after substrate addition using a GLOMAX® Discover multimode detection plate reader (Promega).

KDR:NanoLuc = experiment: Cell-based luciferase assay, HEK293 cells expressing KDR:NanoLuc (NanoLuc in the interior of the cell), ± extracellular inhibitor JRW-0344; details: HEK293 expressing KDR:Nluc; 10 μM substrate ± 20 μM JRW-0344; FIG. 2C
Method: as §1, §2, §3

Chain of purified NANOLUC® Luciferase (Q9GV45 28-196 with tags or gaps with the stated changes limits assumed): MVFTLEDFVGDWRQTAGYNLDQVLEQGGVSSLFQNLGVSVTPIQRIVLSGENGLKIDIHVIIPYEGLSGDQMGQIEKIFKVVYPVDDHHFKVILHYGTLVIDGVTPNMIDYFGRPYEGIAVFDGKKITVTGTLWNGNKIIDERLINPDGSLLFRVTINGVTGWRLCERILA

| Structure (SMILES) | RLU at 100 uM [1] | Difference in RLU's in the presence and absence of the extracellular inhibitor (NanoLuc:KDR) | RLU and effect of the extracellular inhibitor (KDR:NanoLuc) |
| --- | --- | --- | --- |
| O=c1c(Cc2ccc(OCCCCCCS(=O)(=O)OCC(Cl)(Cl)Cl)c(Cl)c2)nc2c(Cc3ccccc3)[nH]c(-c3ccccc3)cn1-2 [JRW-0665, 2,2,2-trichloroethyl 6-(4-((8-benzyl-3-oxo-6-phenyl-3,7-dihydroimidazo[1,2-a]pyrazin-2-yl)methyl)-2-chlorophenoxy)hexane-1-sulfonate] | 0.0055 | – | – |
| CC(C)(C)OC(=O)CCCCCOc1cccc(Cc2nc3c(Cc4ccccc4)[nH]c(-c4ccccc4)cn-3c2=O)c1 [JRW-0682, tert-butyl 6-(3-((8-benzyl-3-oxo-6-phenyl-3,7-dihydroimidazo[1,2-a]pyrazin-2-yl)methyl)phenoxy)hexanoate] | 0.0024 | – | – |
| O=C(O)CCCCCOc1cccc(Cc2nc3c(Cc4ccccc4)[nH]c(-c4ccccc4)cn-3c2=O)c1 [JRW-0684, 6-(3-((8-benzyl-3-oxo-6-phenyl-3,7-dihydroimidazo[1,2-a]pyrazin-2-yl)methyl)phenoxy)hexanoic acid] | 0.0057 | Small differences in RLU's | not affected by the extracellular inhibitor |
| O=c1c(Cc2cccc(OCCCCCCBr)c2)nc2c(Cc3ccccc3)[nH]c(-c3ccccc3)cn1-2 [JRW-0692, 8-benzyl-2-(3-((6-bromohexyl)oxy)benzyl)-6-phenylimidazo[1,2-a]pyrazin-3(7H)-one] | 0.0025 | – | – |
| O=c1c(Cc2cccc(OCCCS(=O)(=O)[O-])c2)nc2c(Cc3ccccc3)[nH]c(-c3ccccc3)cn1-2.[Na+] [JRW-0713, sodium 3-(3-((8-benzyl-3-oxo-6-phenyl-3,7-dihydroimidazo[1,2-a]pyrazin-2-yl)methyl)phenoxy)propane-1-sulfonate] | 0.00081 | – | – |
| CC(C)(C)OC(=O)CCCOc1cccc(Cc2nc3c(Cc4ccccc4)[nH]c(-c4ccccc4)cn-3c2=O)c1 [JRW-0714, tert-butyl 4-(3-((8-benzyl-3-oxo-6-phenyl-3,7-dihydroimidazo[1,2-a]pyrazin-2-yl)methyl)phenoxy)butanoate] | 0.0013 | – | – |
| O=C(O)CCCOc1cccc(Cc2nc3c(Cc4ccccc4)[nH]c(-c4ccccc4)cn-3c2=O)c1 [JRW-0716, 4-(3-((8-benzyl-3-oxo-6-phenyl-3,7-dihydroimidazo[1,2-a]pyrazin-2-yl)methyl)phenoxy)butanoic acid] | 0.0022 | – | – |
| CC(C)(C)OC(=O)CCCCCCCOc1cccc(Cc2nc3c(Cc4ccccc4)[nH]c(-c4ccccc4)cn-3c2=O)c1 [JRW-0719, tert-butyl 8-(3-((8-benzyl-3-oxo-6-phenyl-3,7-dihydroimidazo[1,2-a]pyrazin-2-yl)methyl)phenoxy)octanoate] | 0.0011 | – | – |
| O=c1c(Cc2ccc(OCCCCCCBr)c(Cl)c2)nc2c(Cc3ccccc3)[nH]c(-c3ccccc3)cn1-2 [JRW-0720, 8-benzyl-2-(4-((6-bromohexyl)oxy)-3-chlorobenzyl)-6-phenylimidazo[1,2-a]pyrazin-3(7H)-one] | 0.0085 | Small differences in RLU's | not affected by the extracellular inhibitor |
| O=C(O)CCCCCCCOc1cccc(Cc2nc3c(Cc4ccccc4)[nH]c(-c4ccccc4)cn-3c2=O)c1 [JRW-0722, 8-(3-((8-benzyl-3-oxo-6-phenyl-3,7-dihydroimidazo[1,2-a]pyrazin-2-yl)methyl)phenoxy)octanoic acid] | 0.023 | – | – |
| CC(C)(C)OC(=O)CCCCCOc1ccc(Cc2nc3c(Cc4ccccc4)[nH]c(-c4ccccc4)cn-3c2=O)cc1Cl [JRW-0725, tert-butyl 6-(4-((8-benzyl-3-oxo-6-phenyl-3,7-dihydroimidazo[1,2-a]pyrazin-2-yl)methyl)-2-chlorophenoxy)hexanoate] | 0.013 | – | – |
| CC(=O)N[C@@H](CC(=O)O)C(=O)N[C@@H](CC(=O)O)C(=O)N[C@@H](CC(=O)O)C(=O)NCCCCCCOc1cccc(Cc2nc3c(Cc4ccccc4)[nH]c(-c4ccccc4)cn-3c2=O)c1 [JRW-0741, (S)-3-acetamido-4-(((S)-1-(((S)-1-((6-(3-((8-benzyl-3-oxo-6-phenyl-3,7-dihydroimidazo[1,2-a]pyrazin-2-yl)methyl)phenoxy)hexyl)amino)-3-carboxy-1-oxopropan-2-yl)amino)-3-carboxy-1-oxopropan-2-yl)amino)-4-oxobutanoic acid] | 0.0057 | – | – |
| CC(C)(C)OC(=O)c1cccc(-c2cn3c(=O)c(Cc4ccco4)nc-3c(Cc3ccccc3)[nH]2)c1 [JRW-0755, tert-butyl 3-(8-benzyl-2-(furan-2-ylmethyl)-3-oxo-3,7-dihydroimidazo[1,2-a]pyrazin-6-yl)benzoate] | 0.000043 | – | – |
| O=c1c(Cc2ccc(OCCCCCCCCS(=O)(=O)[O-])c(Cl)c2)nc2c(Cc3ccccc3)[nH]c(-c3ccccc3)cn1-2.[Na+] [JRW-0761, sodium 8-(4-((8-benzyl-3-oxo-6-phenyl-3,7-dihydroimidazo[1,2-a]pyrazin-2-yl)methyl)-2-chlorophenoxy)octane-1-sulfonate] | 0.075 | – | – |
| O=c1c(Cc2ccc(OCCCCCCCCCCS(=O)(=O)[O-])c(Cl)c2)nc2c(Cc3ccccc3)[nH]c(-c3ccccc3)cn1-2.[Na+] [JRW-0765, sodium 10-(4-((8-benzyl-3-oxo-6-phenyl-3,7-dihydroimidazo[1,2-a]pyrazin-2-yl)methyl)-2-chlorophenoxy)decane-1-sulfonate] | 0.011 | – | – |
| O=c1c(Cc2ccc(Cl)c(OCCCCCCS(=O)(=O)[O-])c2)nc2c(Cc3ccccc3)[nH]c(-c3ccccc3)cn1-2.[Na+] [JRW-0766, sodium 6-(5-((8-benzyl-3-oxo-6-phenyl-3,7-dihydroimidazo[1,2-a]pyrazin-2-yl)methyl)-2-chlorophenoxy)hexane-1-sulfonate] | 0.015 | – | – |
| O=c1c(Cc2cc(F)c(OCCCCCCS(=O)(=O)[O-])c(F)c2)nc2c(Cc3ccccc3)[nH]c(-c3ccccc3)cn1-2.[Na+] [JRW-0771, sodium 6-(4-((8-benzyl-3-oxo-6-phenyl-3,7-dihydroimidazo[1,2-a]pyrazin-2-yl)methyl)-2,6-difluorophenoxy)hexane-1-sulfonate] | 0.15 | – | – |
| O=C(O)c1ccc(-c2cn3c(=O)c(Cc4ccco4)nc-3c(Cc3ccccc3)[nH]2)cc1 [JRW-0790, 4-(8-benzyl-2-(furan-2-ylmethyl)-3-oxo-3,7-dihydroimidazo[1,2-a]pyrazin-6-yl)benzoic acid] | 0.0029 | – | – |
| NCCCCCCOc1ccc(Cc2nc3c(Cc4ccccc4)[nH]c(-c4ccccc4)cn-3c2=O)cc1F [JRW-0801, 2-(4-((6-aminohexyl)oxy)-3-fluorobenzyl)-8-benzyl-6-phenylimidazo[1,2-a]pyrazin-3(7H)-one] | 0.0073 | – | – |
| O=c1c(Cc2ccc(OCCCCCCS(=O)(=O)O)c(Cl)c2)nc2c(Cc3ccccc3)[nH]c(-c3cccc(O)c3)cn1-2 [JRW-0805, 6-(4-((8-benzyl-6-(3-hydroxyphenyl)-3-oxo-3,7-dihydroimidazo[1,2-a]pyrazin-2-yl)methyl)-2-chlorophenoxy)hexane-1-sulfonic acid] | 0.17 | – | – |
| CC(=O)N[C@@H](CC(=O)O)C(=O)N[C@@H](CC(=O)O)C(=O)N[C@@H](CC(=O)O)C(=O)NCCCCCCOc1ccc(Cc2nc3c(Cc4ccccc4)[nH]c(-c4ccccc4)cn-3c2=O)cc1F [JRW-0806, (S)-3-acetamido-4-(((S)-1-(((S)-1-((6-(4-((8-benzyl-3-oxo-6-phenyl-3,7-dihydroimidazo[1,2-a]pyrazin-2-yl)methyl)-2-fluorophenoxy)hexyl)amino)-3-carboxy-1-oxopropan-2-yl)amino)-3-carboxy-1-oxopropan-2-yl)amino)-4-oxobutanoic acid] | 0.021 | – | – |
| NCCCCCCOc1cccc(Cc2nc3c(Cc4ccccc4)[nH]c(-c4ccccc4)cn-3c2=O)c1 [TAK-0039, 2-(3-((6-aminohexyl)oxy)benzyl)-8-benzyl-6-phenylimidazo[1,2-a]pyrazin-3(7H)-one] | 0.0077 | Small differences in RLU's | not affected by the extracellular inhibitor |
